From patent US10179782B2, “Substituted sulfonamide compounds” (Genentech, Inc., priority 2016, dated 2019)

What follows are compounds tested against T1, human TRPA1 (Homo sapiens, UniProt O75762) (assay: TRPA1 FLIPR Tetra calcium influx assay in CHO cells (block of cinnamaldehyde-induced calcium influx)). Details: Table 1; CHO cells expressing TRPA1; agonist cinnamaldehyde 75 uM; with vs without substituent at R2/R3; read-out: hTRPA1 CHO Ca2+ AUC EVO (IC50).
T1 construct: expressed in transfected cells; host or cells: CHO cells
T1 sequence (O75762 whole entry): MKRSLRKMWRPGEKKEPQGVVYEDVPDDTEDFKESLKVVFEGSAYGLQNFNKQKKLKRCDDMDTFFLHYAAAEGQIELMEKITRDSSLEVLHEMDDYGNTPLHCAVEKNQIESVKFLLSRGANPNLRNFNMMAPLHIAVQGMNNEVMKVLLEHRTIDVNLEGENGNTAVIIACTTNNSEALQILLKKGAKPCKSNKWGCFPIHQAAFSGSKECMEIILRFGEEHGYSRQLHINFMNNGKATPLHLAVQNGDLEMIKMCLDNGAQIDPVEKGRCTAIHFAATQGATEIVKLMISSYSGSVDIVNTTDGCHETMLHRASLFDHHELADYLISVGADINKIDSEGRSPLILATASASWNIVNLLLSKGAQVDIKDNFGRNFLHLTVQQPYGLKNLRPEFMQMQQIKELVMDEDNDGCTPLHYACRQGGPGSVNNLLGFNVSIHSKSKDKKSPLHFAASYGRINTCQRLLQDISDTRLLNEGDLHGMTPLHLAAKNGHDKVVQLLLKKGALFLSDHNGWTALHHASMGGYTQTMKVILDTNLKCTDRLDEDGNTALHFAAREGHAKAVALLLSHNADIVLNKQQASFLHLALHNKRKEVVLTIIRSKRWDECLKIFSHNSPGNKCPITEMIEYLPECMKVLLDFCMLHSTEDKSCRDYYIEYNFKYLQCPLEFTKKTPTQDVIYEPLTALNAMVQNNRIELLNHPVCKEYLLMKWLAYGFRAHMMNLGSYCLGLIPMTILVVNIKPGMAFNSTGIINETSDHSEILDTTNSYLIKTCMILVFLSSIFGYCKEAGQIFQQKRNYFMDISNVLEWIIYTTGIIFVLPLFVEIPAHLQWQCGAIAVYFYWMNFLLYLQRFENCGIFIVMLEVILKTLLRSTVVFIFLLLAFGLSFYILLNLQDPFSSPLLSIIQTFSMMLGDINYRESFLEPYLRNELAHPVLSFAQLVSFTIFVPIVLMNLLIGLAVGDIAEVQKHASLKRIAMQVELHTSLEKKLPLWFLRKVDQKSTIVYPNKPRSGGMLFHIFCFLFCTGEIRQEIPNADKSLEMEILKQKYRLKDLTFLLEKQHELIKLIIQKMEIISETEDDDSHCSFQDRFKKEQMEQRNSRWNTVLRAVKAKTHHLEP
Format: cell-based
Outline: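 CHO cells expressing TRPA1 were loaded with calcium dye in HBSS/20 mM HEPES, pH 7.4, 0.02% BSA, then given compound for 20 min at room temperature before ~EC80 cinnamaldehyde (75 µM human, 45 µM rat). Block of calcium influx was read on FLIPR Tetra; IC50 fitted with Hill coefficient fixed at 1.5.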

| Compound | IC50 [µM] |
| --- | --- |
| O=C(NCc1cc(-c2cnc(C(F)(F)F)nc2)c(Cl)cn1)[C@@H]1C[C@@H](F)CN1S(=O)(=O)c1ccc(F)cc1 [(2S,4R)-N-[[5-chloro-4-[2-(trifluoromethyl)pyrimidin-5-yl]-2-pyridyl]methyl]-4-fluoro-1-(4-fluorophenyl)sulfonyl-pyrrolidine-2-carboxamide, reference compound] | 0.0422 |
| O=C(NCc1cc(-c2cnc(C(F)(F)F)nc2)ncn1)[C@@H]1C[C@@H](F)CN1S(=O)(=O)c1ccc(F)cc1 [(2S,4R)-4-fluoro-1-(4-fluorophenyl)sulfonyl-N-[[6-[2-(trifluoromethyl)pyrimidin-5-yl]pyrimidin-4-yl]methyl]pyrrolidine-2-carboxamide, reference compound] | 0.251 |
| C[C@H]1[C@H](F)C[C@@H](C(=O)NCc2ccnc(-c3cnc(C(F)(F)F)nc3)c2)N1S(=O)(=O)c1ccc(F)cc1 [drawing 606, (2S,4R,5S)-4-fluoro-1-(4-fluorophenyl)sulfonyl-5-methyl-N-[[2-[2-(trifluoromethyl)pyrimidin-5-yl]-4-pyridyl]methyl]pyrrolidine-2-carboxamide] | 0.0195 |

Same assay, conditions: Table 2; CHO cells expressing TRPA1; agonist cinnamaldehyde 75 uM; 20 min compound incubation; Hill coefficient fixed to 1.5; read-out: hTRPA1 CHO Ca2+ AUC EVO (IC50)

| Compound | IC50 [µM] |
| --- | --- |
| CC(C)Oc1nc(CNC(=O)[C@@H]2C[C@@H](F)CN2S(=O)(=O)c2ccc(F)cc2)cc(-c2cnc(C(F)(F)F)nc2)n1 [Example 60, (2S,4R)-4-fluoro-1-(4-fluorophenyl)sulfonyl-N-[[2-isopropoxy-6-[2-(trifluoromethyl)pyrimidin-5-yl]pyrimidin-4-yl]methyl]pyrrolidine-2-carboxamide] | 0.0831 |
| O=C(NCc1ccnc(-c2cnc(C(F)(F)F)nc2)c1)[C@@H]1C[C@@H]2C[C@@H]2N1S(=O)(=O)c1ccc(F)cc1 [Example 13, (1S,3S,5S)-2-(4-fluorophenyl)sulfonyl-N-[[2-[2-(trifluoromethyl)pyrimidin-5-yl]-4-pyridyl]methyl]-2-azabicyclo[3.1.0]hexane-3-carboxamide] | 0.023 |
| C[C@H]1[C@H](F)C[C@@H](C(=O)NCc2cc(-c3cnc(C(F)(F)F)nc3)cnc2C(F)F)N1S(=O)(=O)c1ccc(F)cc1 [Example 162, (2S,4R,5S)-N-[[2-(difluoromethyl)-5-[2-(trifluoromethyl)pyrimidin-5-yl]-3-pyridyl]methyl]-4-fluoro-1-(4-fluorophenyl)sulfonyl-5-methyl-pyrrolidine-2-carboxamide] | 0.00234 |
| N#Cc1cc(F)c(-c2cnc(C(F)(F)F)nc2)cc1CNC(=O)[C@@H]1C[C@@H](F)CN1S(=O)(=O)c1ccc(F)cc1 [Example 64, (2S,4R)-N-[[2-cyano-4-fluoro-5-[2-(trifluoromethyl)pyrimidin-5-yl]phenyl]methyl]-4-fluoro-1-(4-fluorophenyl)sulfonyl-pyrrolidine-2-carboxamide] | 0.0445 |
| O=C(NCc1cc(-c2cnc(C(F)(F)F)nc2)ncn1)[C@@H]1CC[C@H](C(F)(F)F)N1S(=O)(=O)c1ccc(F)cc1 [Example 9, (2S,5R)-1-(4-fluorophenyl)sulfonyl-5-(trifluoromethyl)-N-[[6-[2-(trifluoromethyl)pyrimidin-5-yl]pyrimidin-4-yl]methyl]pyrrolidine-2-carboxamide] | 0.0422 |
| C[C@H]1[C@H](F)C[C@@H](C(=O)NCc2cc(-c3cnc(C(F)(F)F)nc3)ccc2C(F)(F)F)N1S(=O)(=O)c1ccc(F)cc1 [Example 111, (2S,4R,5S)-4-fluoro-1-(4-fluorophenyl)sulfonyl-5-methyl-N-[[2-(trifluoromethyl)-5-[2-(trifluoromethyl)pyrimidin-5-yl]phenyl]methyl]pyrrolidine-2-carboxamide] | 0.00175 |
| C[C@H]1[C@H](F)C[C@@H](C(=O)NCc2cc(-c3cnc(C(F)(F)F)nc3)ncc2F)N1S(=O)(=O)c1ccc(Cl)s1 [Example 101, (2S,4R,5S)-1-[(5-chloro-2-thienyl)sulfonyl]-4-fluoro-N-[[5-fluoro-2-[2-(trifluoromethyl)pyrimidin-5-yl]-4-pyridyl]methyl]-5-methyl-pyrrolidine-2-carboxamide] | 0.000545 |
| C[C@H]1[C@H](F)C[C@@H](C(=O)NCc2cn(-c3cnc(C(F)(F)F)nc3)nc2C(F)F)N1S(=O)(=O)c1ccc(F)cc1 [Example 40, (2S,4R,5S)-N-[[3-(difluoromethyl)-1-[2-(trifluoromethyl)pyrimidin-5-yl]-1H-pyrazol-4-yl]methyl]-4-fluoro-1-[(4-fluorobenzene)sulfonyl]-5-methylpyrrolidine-2-carboxamide] | 0.0431 |
| O=C(NCc1cc(-c2cnc(C(F)(F)F)nc2)c(F)cc1F)[C@@H]1C[C@@H](F)CN1S(=O)(=O)c1ccc(F)cc1 [Example 74, (2S,4R)-N-[[2,4-difluoro-5-[2-(trifluoromethyl)pyrimidin-5-yl]phenyl]methyl]-4-fluoro-1-(4-fluorophenyl)sulfonyl-pyrrolidine-2-carboxamide] | 0.0651 |
| C[C@H]1[C@H](F)C[C@@H](C(=O)NCc2cc(-c3cnc(C(F)(F)F)nc3)ncc2F)N1S(=O)(=O)c1ccc(F)c(F)c1 [Example 28, (2S,4R,5S)-1-(3,4-difluorophenylsulfonyl)-4-fluoro-N-((5-fluoro-2-(2-(trifluoromethyl)pyrimidin-5-yl)pyridin-4-yl)methyl)-5-methylpyrrolidine-2-carboxamide] | 0.00696 |

More lines, now with the values ahead:

| IC50 [µM] | Compound |
| --- | --- |
| 0.0108 | C[C@H]1[C@H](F)C[C@@H](C(=O)NCc2cc(C(F)(F)F)nc(C3CC3)c2F)N1S(=O)(=O)c1ccc(F)cc1 [Example 123, (2S,4R,5S)-N-[[2-cyclopropyl-3-fluoro-6-(trifluoromethyl)-4-pyridyl]methyl]-4-fluoro-1-(4-fluorophenyl)sulfonyl-5-methyl-pyrrolidine-2-carboxamide] |
| 2.4 | C[C@H]1[C@H](F)C[C@@H](C(=O)NCc2cc(N3CC(OC(F)(F)F)C3)ncn2)N1S(=O)(=O)c1ccc(F)cc1 [Example 25, (2S,4R,5S)-4-fluoro-1-(4-fluorophenylsulfonyl)-5-methyl-N-((6-(3-(trifluoromethoxy)azetidin-1-yl)pyrimidin-4-yl)methyl)pyrrolidine-2-carboxamide] |
| 0.00805 | C[C@H]1[C@H](F)C[C@@H](C(=O)NCc2cc(F)cc(-c3cnc(C(F)(F)F)cn3)c2)N1S(=O)(=O)c1ccc(F)cc1 [Example 45, (2S,4R,5S)-4-fluoro-N-(3-fluoro-5-(5-(trifluoromethyl)pyrazin-2-yl)benzyl)-1-(4-fluorophenylsulfonyl)-5-methylpyrrolidine-2-carboxamide] |
| 0.0553 | C[C@H]1[C@H](F)C[C@@H](C(=O)NCc2cc(N3CC(OC(F)(F)F)C3)nc(C3CC3)n2)N1S(=O)(=O)c1ccc(F)cc1 [Example 81, (2S,4R,5S)-N-[[2-cyclopropyl-6-[3-(trifluoromethoxy)azetidin-1-yl]pyrimidin-4-yl]methyl]-4-fluoro-1-(4-fluorophenyl)sulfonyl-5-methyl-pyrrolidine-2-carboxamide] |
| 0.00145 | C[C@H]1[C@H](F)C[C@@H](C(=O)NCc2cc(-c3cnc(C(F)(F)F)nc3)nc(C3CC3)c2)N1S(=O)(=O)c1ccc(F)cc1 [Example 121, (2S,4R,5S) N-[[2-cyclopropyl-6-[2-(trifluoromethyl)pyrimidin-5-yl]-4-pyridyl]methyl]-4-fluoro-1-(4-fluorophenyl)sulfonyl-5-methyl-pyrrolidine-2-carboxamide] |
| 0.0173 | C[C@H]1[C@H](F)C[C@@H](C(=O)NCc2cc(-c3cnc(C(F)(F)F)nc3)ncn2)N1S(=O)(=O)c1ccc(F)cc1 [Example 8, (2S,4R,5S)-4-fluoro-1-(4-fluorophenyl)sulfonyl-5-methyl-N-[[6-[2-(trifluoromethyl)pyrimidin-5-yl]pyrimidin-4-yl]methyl]pyrrolidine-2-carboxamide] |
| 0.035 | C[C@H]1[C@H](F)C[C@@H](C(=O)NCc2cc(-c3cnc(C(F)(F)F)nc3)c(OC(F)F)cn2)N1S(=O)(=O)c1ccc(F)cc1 [Example 146, (2S,4R,5S)-N-[[5-(difluoromethoxy)-4-[2-(trifluoromethyl)pyrimidin-5-yl]-2-pyridyl]methyl]-4-fluoro-1-(4-fluorophenyl)sulfonyl-5-methyl-pyrrolidine-2-carboxamide] |
| 0.0127 | Cc1cnc(-c2cnc(C(F)(F)F)nc2)cc1CNC(=O)[C@@H]1C[C@@H](F)[C@H](C)N1S(=O)(=O)c1ccc(F)cc1 [Example 100, (2S,4R,5S)-4-fluoro-1-((4-fluorophenyl)sulfonyl)-5-methyl-N-((5-methyl-2-(2-(trifluoromethyl)pyrimidin-5-yl)pyridin-4-yl)methyl)pyrrolidine-2-carboxamide] |
| 0.0049 | C[C@H]1[C@H](F)C[C@@H](C(=O)NCc2cc(-c3cnc(C(F)(F)F)nc3)ncc2C2CC2)N1S(=O)(=O)c1ccc(F)cc1 [Example 125, (2S,4R,5S)-N-[[5-cyclopropyl-2-[2-(trifluoromethyl)pyrimidin-5-yl]-4-pyridyl]methyl]-4-fluoro-1-(4-fluorophenyl)sulfonyl-5-methyl-pyrrolidine-2-carboxamide] |
| 0.00606 | C[C@H]1[C@H](F)C[C@@H](C(=O)NCc2cc(-c3cnc(C(F)(F)F)nc3)cc(F)c2F)N1S(=O)(=O)c1ccc(F)cc1 [Example 97, (2S,4R,5S)-N-[[2-1,3-difluoro-5-[2-(trifluoromethyl)pyrimidin-5-yl]phenyl]methyl]-4-fluoro-1-(4-fluorophenyl)sulfonyl-5-methyl-pyrrolidine-2-carboxamide] |
| 0.0646 | C[C@H]1[C@H](F)C[C@@H](C(=O)NCc2cc([C@H]3CC[C@H](C(F)(F)F)CC3)c(F)cn2)N1S(=O)(=O)c1ccc(F)cc1 [Example 53, (2S,4R,5S)-4-fluoro-1-(4-fluorophenyl)sulfonyl-N-[[5-fluoro-4-[4-(trifluoromethyl)cyclohexyl]-2-pyridyl]methyl]-5-methyl-pyrrolidine-2-carboxamide] |
